Patent publication US20220280526A1, “AGENT FOR THE TREATMENT OF PSORIASIS” (EBERHARD KARLS UNIVERSITAET TUEBINGEN MEDIZINISCHE FAKULTAET, priority 2019, published 2022)

Columns and labels:
Type in all cases: cell-based
IκBζ expression = IκBζ expression in synchronized HaCaT cells stimulated with IL-36α; settings: 1 h IL-36α
Method: Synchronization of the cells with a double thymidine block was performed as described before. After the second thymidine block, cells were released in normal medium. At 0, 4, 10 and 14 h after release, cells were stimulated with IL-36α and/or abemaciclib for 1 h. Propidium iodide staining was performed by flow cytometry (LSRII, Becton Dickson) to detect the cell cycle phase at the time point of cell harvest.
Western blot analysis was performed as described before. The following antibodies were used and purchased from Cell Signaling: anti-IκBζ (9244), anti-phospho-STAT3 at Tyr705 (9145), anti-phospho-STAT3 at Ser727 (9134), anti-STAT3 (12640), anti-p65 (8242), anti-EZH2 (5246), anti-pRB (phospho-RB at Ser807/811; 8516), anti-FoxM1 (5436), anti-H3 (4499), anti-CDK4 (12790), anti-CDK6 (13331), anti-CDK9 (2316), anti-cyclin D1 (2978), anti-cyclin D2 (3741), anti-cyclin D3 (2936), anti-cJUN (9165), anti-H3K27me3 (9733), anti-GAPDH (2118), anti-H3 (9715) and anti-β-actin (3700). Anti-β-Gal (sc377257) and anti-GFP (sc9996) were obtained from Santa Cruz Biotechnology. Anti-pEZH2 at T345 (61242) anti-pEZH2 at T487 (12820) were purchased from Active Motif and anti-pan-methyl-lysine antibody was purchased from Enzo (ADI-KAP-TF121-E). For detection of mouse IκBζ, a self-made antibody raised against peptides […] (SEQ ID NO:3) and […] (SEQ ID NO:4) was applied.

NFKBIZ (IκBζ) promoter = test: Luciferase assay of NFKBIZ promoter activity in HaCaT cells; settings: IL-36α-stimulated HaCaT cells, 24 h
Method: Luciferase constructs were generated as described; Muller et al. (2018; loc. Cit.). 1*10^4 HEK293T cells were transfected for 24 h using HBS buffer and CaCl2 and a mixture of 400 ng luciferase vector and 100 ng TK-Renilla vector. For expression of other factors, the following concentrations were used: 70 ng p65, 200 ng cJUN, STAT3 or EZH2 constructs and 500 ng CDK4, CDK6 or cyclin D expression constructs (not shown). For transfection of HaCaT cells, 3*10^5 cells were transfected for 4 h using Lipofectamine 3000 and a mixture of 800 ng luciferase vector, 200 ng TK-Renilla vector and 4 μg expression or control plasmids according to the manufacturer's instructions (Thermo Fisher). 36 h after transfection, luciferase activity was measured with the Dual Luciferase Reporter Assay Kit (Promega). Expression of the reporter constructs was calculated as the fold induction over unstimulated transfected cells from data of three independent experiments.

[1] = test system: STAT3, EZH2, CDK4 and CDK6 binding to the NFKBIZ promoter region; test: Chromatin immunoprecipitation at the NFKBIZ promoter in IL-36α-stimulated HaCaT cells; settings: 30 min IL-36α
STAT3 = STAT3 phosphorylation in primary human keratinocytes (immunoblot); settings: after stimulation with IL-36α
Source text: HaCaT cells were maintained in DMEM with 10% FCS and antibiotics. Human primary keratinocytes were freshly isolated from foreskin and maintained in CnT-07S medium with gentamycin (CELLnTEC). Recombinant human IL-36α (aa 6-158) and mouse IL-36α (aa 6-160) were purchased from R&D Systems. Recombinant IL-17A (11340174), TNFα (11343013) and IL-1β (11340013) were ordered from Immunotools. Flagellin (vac-fla) and poly I:C (vac-pic) were purchased from Invivogen. In cell culture experiments, the cytokines were used at the following concentrations, as described previously: IL-36α (100 ng/mL), IL-17A (200 ng/mL), TNFα (10 ng/mL) and IL-1β (100 ng/mL). Flagellin was applied at 10 ng/mL and poly(I:C) was added at a final concentration of 100 ng/mL. […] When indicated, cells were starved for 2 h prior to cytokine treatment, by removing cell culture supplements from the growth medium.
Western blot analysis was performed as described before. […]

EZH2-STAT3 interaction = test: Co-immunoprecipitation of EZH2 and STAT3 in HaCaT cells; settings: 30 min IL-36α
Method: Cells were lysed by mechanical disruption using standard lysis buffer (50 mM Tris-HCl pH 7.5, 150 mM NaCl, 1% NP-40, lx Protease inhibitor cocktail, Roche). Subsequently, lysates were sonicated for 5 minutes at high power (Bioruptor, Diagenode), followed by pre-clearing of the lysates with protein A/G PLUS agarose beads (Santa Cruz, sc-2003) for 1 h at 4° C. Precleared lysates were incubated either with antibodies specific for CDK4 (Cell Signaling, 12790), CDK6 (Sigma, HPA002637), EZH2 (Cell Signaling, 5246), STAT3 (MA1-13042, Thermo Fisher) or β-Gal antibody (sc-19119, Santa Cruz) as an IgG control, overnight at 4° C. For endogenous IPs immune complexes were precipitated with protein A/G PLUS agarose beads and eluted by 6×SDS-PAGE sample buffer.

Substance: Abemaciclib mesylate
- IL-36α-triggered IκBζ induction in all phases of the cell cycle (IκBζ expression): completely suppressed
- expression of luciferase construct harboring the NFKBIZ (IκBζ) promoter (NFKBIZ (IκBζ) promoter): abrogated
- recruitment of STAT3/EZH2/CDK4/6 multi-protein complex to the NFKBIZ promoter region [1]: abrogated
- phosphorylation of STAT3 at threonine 727 (T727) (STAT3): remained unaffected
- phosphorylation of STAT3 at tyrosine 705 (Y705) (STAT3): completely absent
- interaction of EZH2 with STAT3 (EZH2-STAT3 interaction): abrogate
